Target: c-kit WT (Homo sapiens (Human), UniProt P10721)
Test: Proliferation assay (CellTiter-Blue) on BaF3 Kit WT cell line
Format: cell-based
Settings: BaF3 Kit WT cell line (murine Ba/F3 expressing Human Kit WT, with murine SCF), 48 hours
Description: Procedures of C-Kit WT Inhibition Assays:
Colorimetric cell proliferation and viability assay (reagent CellTiter-Blue purchased from Promega cat N°G8081) was performed on BaF3 Kit WT cell line.
A total of 2.10^4 cells/50 μl were seeded per well of a 96-wells plate. Treatment was initiated by addition of a 2× drug solution of ½ serial dilutions ranging from 0 to 10 μM. After incubating for 48 hours at 37° C., 10 μl of a ½ dilution of CellTiter-Blue reagent was added to each well and the plates were returned to the incubator for an additional 4 hours. The fluorescence intensity from the CellTiter-Blue reagent is proportional to the number of viable cells and data were recorded (544Ex/590Em) using a POLARstar OMEGA microplate reader (BMG LabteckSarl). A background control without cells was used as a blank. The positive control of the assay corresponds to the cell proliferation obtained in the absence of drug treatment (100% proliferation). Each sample was done in triplicate. The results were expressed as a percentage of the proliferation obtained in absence of treatment. All drugs were prepared as 20 mM stock solutions in DMSO and conserved at −80° C. Drug dilutions were made fresh in medium before each experiment. A DMSO control was included in each experiment.
The cell line expressing Human Kit WT was derived from the murine IL3-dependent Ba/F3 proB lymphoid cells. Ba/F3 Kit WT cells were maintained in RPMI medium containing 10% FCS and supplemented with 250 ng/ml of recombinant murine SCF.

Chain of c-kit WT (P10721 26-976): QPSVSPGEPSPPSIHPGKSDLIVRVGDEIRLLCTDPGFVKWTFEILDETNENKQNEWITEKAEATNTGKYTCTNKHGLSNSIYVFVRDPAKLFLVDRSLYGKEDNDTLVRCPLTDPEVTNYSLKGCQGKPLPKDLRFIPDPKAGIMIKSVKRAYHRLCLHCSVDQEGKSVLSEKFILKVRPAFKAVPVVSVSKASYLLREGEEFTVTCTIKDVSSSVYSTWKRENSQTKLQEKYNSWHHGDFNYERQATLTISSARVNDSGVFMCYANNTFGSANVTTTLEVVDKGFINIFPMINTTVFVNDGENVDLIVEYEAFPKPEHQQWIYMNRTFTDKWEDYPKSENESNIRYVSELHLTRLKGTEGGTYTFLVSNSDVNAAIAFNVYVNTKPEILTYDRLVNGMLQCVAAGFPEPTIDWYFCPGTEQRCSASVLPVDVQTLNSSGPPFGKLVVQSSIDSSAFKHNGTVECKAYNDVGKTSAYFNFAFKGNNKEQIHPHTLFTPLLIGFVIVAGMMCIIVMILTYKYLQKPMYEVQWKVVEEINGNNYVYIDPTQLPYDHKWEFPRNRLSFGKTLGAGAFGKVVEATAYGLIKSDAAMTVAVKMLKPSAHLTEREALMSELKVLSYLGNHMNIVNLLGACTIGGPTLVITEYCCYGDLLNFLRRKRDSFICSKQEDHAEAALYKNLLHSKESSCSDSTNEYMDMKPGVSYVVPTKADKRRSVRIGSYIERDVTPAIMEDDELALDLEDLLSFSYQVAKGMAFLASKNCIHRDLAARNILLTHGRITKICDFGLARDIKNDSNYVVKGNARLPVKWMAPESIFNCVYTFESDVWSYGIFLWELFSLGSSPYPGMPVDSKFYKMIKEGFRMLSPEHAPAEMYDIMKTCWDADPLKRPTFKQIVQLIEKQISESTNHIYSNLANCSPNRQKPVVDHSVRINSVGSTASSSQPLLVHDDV

SMILES | IC50 [nM]
COc1cccc(-c2nc3cc(Nc4nc(-c5ccncc5)cs4)c(C)cc3n2C)c1 [Compound 125, [2-(3-Methoxy-phenyl)-1,6-dimethyl-1H-benzoimidazol-5-yl]-(4-pyridin-4-yl-thiazol-2-yl)-amine] | ≤ 1000
Cc1cc2[nH]c(-c3cccc(F)c3)nc2cc1Nc1nc(-c2cccnc2)cs1 [Compound 123, [2-(3-Fluoro-phenyl)-6-methyl-1H-benzoimidazol-5-yl] (4-pyridin-3-yl-thiazol-2-yl)-amine] | 1000 to 10000
Cc1cc2nc(-c3cccc(C(F)F)c3)n(C)c2cc1Nc1nc(-c2cccnc2)cs1 [Compound 113, [2-(3-Difluoromethyl-phenyl)-3,6-dimethyl-3H-benzoimidazol-5-yl]-(4-pyridin-3-yl-thiazol-2-yl)-amine] | 1000 to 10000
Cc1cc2nc(-c3ccc(C(F)(F)F)cc3)[nH]c2cc1Nc1nc(-c2ccc(C#N)cc2)cs1 [Compound 076, 4-{2-[6-Methyl-2-(4-trifluoromethyl-phenyl)-3H-benzoimidazol-5-ylamino]-thiazol-4-yl}-benzonitrile] | 1000 to 10000
Cc1cc2nc(-c3cncc(C(F)(F)F)c3)[nH]c2cc1Nc1nc(-c2cccnc2)cs1 [Compound 049, [6-Methyl-2-(5-trifluoromethyl-pyridin-3-yl)-3H-benzoimidazol-5-yl]-(4-pyridin-3-yl-thiazol-2-yl)-amine] | ≤ 1000
Cc1cc2nc(-c3cccnc3)[nH]c2cc1Nc1nccc(-c2cccnc2)n1 [Compound 014, (6-Methyl-2-pyridin-3-yl-3H-benzoimidazol-5-yl)-(4-pyridin-3-yl-pyrimidin-2-yl)-amine] | 1000 to 10000
Cc1cc2nc(-c3cccc(C(F)(F)F)c3)[nH]c2cc1Nc1nc(-c2cccnc2)cs1 [Compound 005, [6-Methyl-2-(3-trifluoromethyl-phenyl)-3H-benzoimidazol-5-yl]-(4-pyridin-3-yl-thiazol-2-yl)-amine] | ≤ 1000
Cc1cc2[nH]c(-c3cccc(C(C)C)c3)nc2cc1Nc1nc(-c2cccnc2)cs1 [Compound 136, [2-(3-Isopropyl-phenyl)-6-methyl-1H-benzoimidazol-5-yl]-(4-pyridin-3-yl-thiazol-2-yl)-amine] | ≤ 1000
Cc1ccc(-c2nc3cc(C)c(Nc4nc(-c5cccnc5)cs4)cc3[nH]2)cc1 [Compound 004, (6-Methyl-2-p-tolyl-3H-benzoimidazol-5-yl)-(4-pyridin-3-yl-thiazol-2-yl)-amine] | 1000 to 10000
Cc1cc2nc(-c3cccc(C(F)(F)F)c3)[nH]c2cc1Nc1nc(-c2cncnc2)cs1 [Compound 062, [6-Methyl-2-(3-trifluoromethyl-phenyl)-3H-benzoimidazol-5-yl]-(4-pyrimidin-5-yl-thiazol-2-yl)-amine] | ≤ 1000
Cc1cc2nc(-c3cccc(C(F)F)c3)[nH]c2cc1Nc1nc(-c2cccc(C#N)c2)cs1 [Compound 127, 3-{2-[2-(3-Difluoromethyl-phenyl)-6-methyl-3H-benzoimidazol-5-ylamino]-thiazol-4-yl}-benzonitrile] | ≤ 1000
Cc1cc2nc(-c3cccc(C(F)F)c3)[nH]c2cc1Nc1nc(-c2ccc(C(N)=O)cc2)cs1 [Compound 071, 4-{2-[2-(3-Difluoromethyl-phenyl)-6-methyl-3H-benzoimidazol-5-ylamino]-thiazol-4-yl}-benzamide] | ≤ 1000
Cc1cc2c(cc1Nc1nc(-c3ccncc3)cs1)nc(-c1cccc(C(F)F)c1)n2C [Compound 081, [2-(3-Difluoromethyl-phenyl)-1,6-dimethyl-1H-benzoimidazol-5-yl]-(4-pyridin-4-yl-thiazol-2-yl)-amine] | ≤ 1000
Cc1cc2c(cc1Nc1nc(-c3cccnc3)cs1)nc(-c1cc(F)cc(C(F)(F)F)c1)n2C [Compound 148, [2-(3-Fluoro-5-trifluoromethyl-phenyl)-1,6-dimethyl-1H-benzoimidazol-5-yl]-(4-pyridin-3-yl-thiazol-2-yl)-amine] | ≤ 1000
FC(F)(F)Oc1cccc(-c2nc3cc(Nc4nc(-c5cccnc5)cs4)ccc3[nH]2)c1 [Compound 089, (4-Pyridin-3-yl-thiazol-2-yl)-[2-(3-trifluoromethoxy-phenyl)-1H-benzoimidazol-5-yl]-amine] | ≤ 1000
Cc1cc2nc(-c3ccc(CN4CCN(C)CC4)cc3)[nH]c2cc1Nc1nc(-c2ccncc2)cs1 [Compound 048, {6-Methyl-2-[4-(4-methyl-piperazin-1-ylmethyl)-phenyl]-1H-benzoimidazol-5-yl}-(4-pyridin-4-yl-thiazol-2-yl)-amine] | 1000 to 10000

SMILES | IC50 [nM]
Cc1cc2nc(-c3cnc4ccccc4c3)[nH]c2cc1Nc1nccc(-c2cccnc2)n1 [Compound 017, (6-Methyl-2-quinolin-3-yl-3H-benzoimidazol-5-yl)-(4-pyridin-3-yl-pyrimidin-2-yl)-amine] | 1000 to 10000
Cc1cc2nc(-c3ccc(CN4CCN(C)CC4)cc3)[nH]c2cc1Nc1ncc(-c2cccnc2)o1 [Compound 006, {6-Methyl-2-[4-(4-methyl-piperazin-1-ylmethyl)-phenyl]-3H-benzoimidazol-5-yl}-(5-pyridin-3-yl-oxazol-2-yl)-amine] | 1000 to 10000
Cc1cc2nc(-c3cccc(Cl)c3)[nH]c2cc1Nc1nc(-c2cncnc2)cs1 [Compound 068, [2-(3-Chloro-phenyl)-6-methyl-1H-benzoimidazol-5-yl]-(4-pyrimidin-5-yl-thiazol-2-yl)-amine] | 1000 to 10000
Cc1cc2nc(-c3cccc(CN4CCN(C)CC4)c3)[nH]c2cc1Nc1nc(-c2cccnc2)cs1 [Compound 044, {6-Methyl-2-[3-(4-methyl-piperazin-1-ylmethyl)-phenyl]-1H-benzoimidazol-5-yl}-(4-pyridin-3-yl-thiazol-2-yl)-amine] | 1000 to 10000
Cc1cc2c(cc1Nc1nc(-c3ccncc3)cs1)nc(-c1cccc(C(F)F)c1)n2C(C)C [Compound 100, [2-(3-Difluoromethyl-phenyl)-1-isopropyl-6-methyl-1H-benzoimidazol-5-yl]-(4-pyridin-4-yl-thiazol-2-yl)-amine] | ≤ 1000
Cc1ccc(-c2nc3cc(C)c(Nc4nc(-c5cccnc5)cs4)cc3[nH]2)s1 [Compound 078, [6-Methyl-2-(5-methyl-thiophen-2-yl)-3H-benzoimidazol-5-yl]-(4-pyridin-3-yl-thiazol-2-yl)-amine] | ≤ 1000
Cc1cc2nc(-c3cccc(CN4CCN(C)CC4)c3)[nH]c2cc1Nc1nc(-c2ccncc2)cs1 [Compound 046, {6-Methyl-2-[3-(4-methyl-piperazin-1-ylmethyl)-phenyl]-1H-benzoimidazol-5-yl}-(4-pyridin-4-yl-thiazol-2-yl)-amine] | 1000 to 10000
Cc1cc2nc(-c3cccc(CN4CCN(C)CC4)c3)[nH]c2cc1Nc1nccc(-c2cccnc2)n1 [Compound 043, {6-Methyl-2-[3-(4-methyl-piperazin-1-ylmethyl)-phenyl]-3H-benzoimidazol-5-yl}-(4-pyridin-3-yl-pyrimidin-2-yl)-amine] | 1000 to 10000
CCS(=O)(=O)Nc1cccc(-c2nc3cc(Nc4nc(-c5ccncc5)cs4)c(C)cc3n2C)c1 [Compound 134, Ethanesulfonic acid {3-[1,6-dimethyl-5-(4-pyridin-4-yl-thiazol-2-ylamino)-1H-benzoimidazol-2-yl]-phenyl}-amide] | 1000 to 10000
C#Cc1cccc(-c2nc3cc(Nc4nc(-c5ccc(C#N)cc5)cs4)c(C)cc3[nH]2)c1 [Compound 141, 4-{2-[2-(3-Ethynyl-phenyl)-6-methyl-1H-benzoimidazol-5-ylamino]-thiazol-4-yl}-benzonitrile] | ≤ 1000
Cc1cc2nc(-c3cccc(N4CCN(C)CC4)c3)[nH]c2cc1Nc1nccc(-c2cccnc2)n1 [Compound 015, {6-Methyl-2-[3-(4-methyl-piperazin-1-yl)-phenyl]-3H-benzoimidazol-5-yl}-(4-pyridin-3-yl-pyrimidin-2-yl)-amine] | 1000 to 10000
Cc1cc2[nH]c(-c3cccc(C(C)(C)C)c3)nc2cc1Nc1nc(-c2ccncc2)cs1 [Compound 153, [2-(3-tert-Butyl-phenyl)-6-methyl-1H-benzoimidazol-5-yl]-(4-pyridin-4-yl-thiazol-2-yl)-amine] | ≤ 1000
Cc1cccc(-c2nc3cc(Nc4nc(-c5ccc(C#N)cc5)cs4)c(C)cc3n2C)c1 [Compound 112, 4-[2-(1,6-Dimethyl-2-m-tolyl-1H-benzoimidazol-5-ylamino)-thiazol-4-yl]-benzonitrile] | ≤ 1000
Cc1cc2c(cc1Nc1nc(-c3ccncc3)cs1)nc(-c1cccc(S(C)(=O)=O)c1)n2C [Compound 120, [2-(3-Methanesulfonyl-phenyl)-1,6-dimethyl-1H-benzoimidazol-5-yl]-(4-pyridin-4-yl-thiazol-2-yl)-amine] | ≤ 1000
Cc1cc2nc(-c3cccc(C#N)c3)[nH]c2cc1Nc1nccc(-c2cccnc2)n1 [Compound 013, 3-[5-Methyl-6-(4-pyridin-3-yl-pyrimidin-2-ylamino)-1H-benzoimidazol-2-yl]-benzonitrile] | 1000 to 10000
FC(F)c1cccc(-c2nc3cc(Nc4nc(-c5cccnc5)cs4)ccc3[nH]2)c1 [Compound 087, [2-(3-Difluoromethyl-phenyl)-1H-benzoimidazol-5-yl]-(4-pyridin-3-yl-thiazol-2-yl)-amine] | ≤ 1000
